Data reported in patent publication US20100167261A1, “PLATELET STABILIZATION” (SIEMENS HEALTHCARE DIAGNOSTICS INC., priority 2006, published 2010).
Where two headings read alike, the source gives them in different places.

Assays:
Format in all cases: cell-based
platelets [1] = experiment: morphometric evaluation of α-granules per platelet and platelet morphology, electron microscopy
Description: (§1) Blood from healthy controls were also collected into Vacutainer® K3E 4.5 mL K3EDTA sample collection tubes (Cat. No. 367654, Becton, Dickinson and Company, Franklin Lakes, N.J.) and combined with the remaining STABILE-1 reagents (citrate-phosphate-dextrose, wortmanin, tyrphostin) to yield the prescribed concentrations. […] Mean platelet component and mean platelet volume were assessed at 30 min, 6 hr, and 24 hr following blood collection/initial combination with storage reagents using the ADVIA® 2120 system (Bayer AG, Leverkusen, Germany). Flow cytometry techniques were used to identify platelet activation proteins, and the impact of these strategies on ultrastructural morphology of platelets was morphometrically evaluated using electron microscopy (EM). The values obtained at t=0+30 (i.e., 30 min after blood collection and the initial combination with the storage reagents) were designated as baseline values to which values observed at t=6 hr and t=24 hr were compared.

platelets [2] = experiment: morphometric evaluation of dense bodies per platelet, electron microscopy whole mounts; conditions: * = statistically significant at the 95% confidence level
Source text: In accordance with published methods, platelet whole mounts were viewed “by transparence”, i.e., while supported on polyvinal formal resin, and dense bodies were counted.
The plot depicts mean values with 95% LSD intervals.

platelets [3] = experiment: mean platelet component (MPC) of stored blood samples, ADVIA 2120 Hematology System; conditions: for mean platelet component (MPC), Average: Table 1, stored at 22° C.
Description: The ADVIA® 120 Hematology System is an automated analyzer that, in addition to measuring the conventional hematologic indices, also provides some activation-related information about platelets. Macey M G et al., Cytometry 38:250-55 (1999). It measures the intensity of light scattered by platelets at two different cone angles (2-3° and 5-15° and from the paired values computes platelet volume (PV) and platelet component (PC) concentration on a cell-by-cell basis. These values are then averaged to provide the Mean Platelet Component (MPC).
(§2) The samples were subjected to gently agitation, and were stored either at room temperature (22° C.) or at 4° C., and mean platelet component and mean platelet volume values were obtained at the designated time points using the ADVIA® 2120 system.
Blood from healthy controls were also collected into Vacutainer® K3E 4.5 mL K3EDTA sample collection tubes (Cat. No. 367654, Becton, Dickinson and Company, Franklin Lakes, N.J.) and combined with the remaining STABILE-1 reagents (citrate-phosphate-dextrose, wortmanin, tyrphostin) to yield the prescribed concentrations. These samples were stored either at room temperature (22° C.) or at 4° C., and mean platelet component values were obtained at the designated time points using the ADVIA® 2120 system.
as §1
Blood from healthy controls were carefully collected, and mean platelet component was assessed upon combination of blood with the respective storage reagents, using the ADVIA® 2120 system (Bayer AG, Leverkusen, Germany), and again at 1 hr, 3 hr, 6 hr, and 24 hr following the initial combination with storage reagents. All samples were stored at room temperature (22° C.).
Experiments were conducted in order to assess the effect of varying the concentration of the citrate-phosphate-dextrose component in the STABILE-1 storage medium on the mean platelet component. Blood from healthy controls were carefully collected, and mean platelet component was assessed upon combination of blood with the respective storage reagents, using the ADVIA® 2120 system (Bayer AG, Leverkusen, Germany), and again at 1 hr, 3 hr, 6 hr, and 24 hr following the initial combination with storage reagents. All samples were stored at room temperature (22° C.).

[4] = tested on: P-selectin (also known as CD62P); experiment: P-selectin expression of stored platelets, flow cytometry; conditions: 22° C., n = 8
Description: as §1

platelets [5] = conditions: for MPV, increase in % vs 30 min baseline: n = 8; for mean platelet volume (MPV), Average: Table 4, stored at 22° C.
Description: as §2
Blood from healthy controls were also collected into Vacutainer® K3E 4.5 mL K3EDTA sample collection tubes (Cat. No. 367654, Becton, Dickinson and Company, Franklin Lakes, N.J.) and combined with the remaining STABILE-1 reagents (citrate-phosphate-dextrose, wortmanin, tyrphostin) to yield the prescribed concentrations. These samples were stored either at room temperature (22° C.) or at 4° C., and mean platelet component volume was assessed at the designated time points using the ADVIA® 2120 system.
as §1, with “(EM).” for “(EM). The values obtained at t=0+30 (i.e., 30 min after blood collection and the initial combination with the storage reagents) were designated as baseline values to which values observed at t=6 hr and t=24 hr were compared.”

Compound: O=C(O)CN(CCN(CC(=O)O)CC(=O)O)CC(=O)O [EDTA, Ethylenediaminetetraacetic acid]
- number of α-granules per platelet section (platelets [1]; 6 h): 6.4±2.3
- number of α-granules per platelet section (platelets [1]; 24 h): 3.5±1.4
- number of α-granules per platelet as compared with t=0 (platelets [1]; FIG. 4A, six hours of storage, 22° C.): statistical reduction
- number of α-granules per platelet section (platelets [1]; baseline): 12.3±6.07
- Difference, mean number of dense bodies per platelet (platelets [2]; Contrast EDTA 0 hr vs. stored 1 hr): −1.26*
- Difference, mean number of dense bodies per platelet (platelets [2]; Contrast EDTA 0 hr vs. stored 24 hr): 2.1*
- Difference, mean number of dense bodies per platelet (platelets [2]; Contrast EDTA 1 hr vs. EDTA 6 hr): 1.9*
- MPC (platelets [3]; 30 min (baseline), 22° C., n = 8): 259 ± 6.6 g/L
- MPC, reduction in % vs 30 min baseline (platelets [3]; 6 hours, 22° C., n = 8): −9%
- MPC, reduction in % vs 30 min baseline (platelets [3]; 24 hours, 22° C., n = 8): −21%
- mean platelet component (MPC), Average (platelets [3]; 0 min, n 12): 260.83
- mean platelet component (MPC), Average (platelets [3]; 30 min, n 15): 258.07
- mean platelet component (MPC), Average (platelets [3]; 1 h, n 15): 252.00
- mean platelet component (MPC), Average (platelets [3]; 3 h, n 15): 239.07
- mean platelet component (MPC), Average (platelets [3]; 6 h, n 15): 229.87
- mean platelet component (MPC), Average (platelets [3]; 24 h, n 15): 201.07
- mean platelet component (platelets [3]; Table 8, 0, stored at room temperature (22° C.)): 278
- mean platelet component (platelets [3]; Table 8, 1 hr, stored at room temperature (22° C.)): 273
- mean platelet component (platelets [3]; Table 8, 3 hr, stored at room temperature (22° C.)): 265
- mean platelet component (platelets [3]; Table 8, 6 hr, stored at room temperature (22° C.)): 268
- mean platelet component (platelets [3]; Table 8, 24 hr, stored at room temperature (22° C.)): 233
- mean platelet component (platelets [3]; Table 10, 0, stored at room temperature (22° C.)): 258
- mean platelet component (platelets [3]; Table 10, 1 hr, stored at room temperature (22° C.)): 247
- mean platelet component (platelets [3]; Table 10, 3 hr, stored at room temperature (22° C.)): 235
- mean platelet component (platelets [3]; Table 10, 6 hr, stored at room temperature (22° C.)): 225
- mean platelet component (platelets [3]; Table 10, 24 hr, stored at room temperature (22° C.)): 190
- mean platelet component (platelets [3]; Table 11, 0, stored at room temperature (22° C.)): 288
- mean platelet component (platelets [3]; Table 11, 1 hr, stored at room temperature (22° C.)): 282
- mean platelet component (platelets [3]; Table 11, 3 hr, stored at room temperature (22° C.)): 271
- mean platelet component (platelets [3]; Table 11, 6 hr, stored at room temperature (22° C.)): 269
- mean platelet component (platelets [3]; Table 11, 24 hr, stored at room temperature (22° C.)): 227
- decrease in the mean platelet component (platelets [3]; six hours after initial combination (t=0), storage at 22° C., Tables 1 and 2): ~12%
- decrease of MPC values (platelets [3]; t=5.5 hr after baseline measurements, room temperature / 22° C.): 9%
- P-selectin, % of positive platelets ([4]; 30 min (baseline)): 2.1%
- P-selectin, % of positive platelets ([4]; 6 hours): 13.9%
- P-selectin, % of positive platelets ([4]; 24 hours): 40.8%
- MPV (platelets [5]): 8.3 ± 0.2 fL
- increase of MPV values (platelets [5]; 5.5 hours after baseline, 22° C.): 10.2%
- MPV, increase in % vs 30 min baseline (platelets [5]; 6 hours, 22° C.): +10.2%
- MPV, increase in % vs 30 min baseline (platelets [5]; 24 hours, 22° C.): +23%
- mean platelet volume (MPV), Average (platelets [5]; 0 min, n 12): 8.36
- mean platelet volume (MPV), Average (platelets [5]; 30 min, n 15): 8.41
- mean platelet volume (MPV), Average (platelets [5]; 1 h, n 15): 8.65
- mean platelet volume (MPV), Average (platelets [5]; 3 h, n 15): 9.22
- mean platelet volume (MPV), Average (platelets [5]; 6 h, n 15): 9.53
- mean platelet volume (MPV), Average (platelets [5]; 24 h, n 15): 10.63
- increase in the mean platelet volume (platelets [5]; six hours after initial combination (t=0), storage at 22° C., Tables 4 and 5): ~12%
